PubChem BioAssay (NCI)
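Step 1: Grow cells in 96-well plates. Step 2: Expose to compound for 48 hours at 5 concentrations. Step 3: Interpolate endpoints linearly; if unreached, use highest concentration. At the TGI there is no net growth.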

Key:
Experiment in all cases: growth of human tumour cells (NCI), 48 h
A549 NSCLC = system: A549 NSCLC
HCC-2998 colon = system: HCC-2998 colon
NCI-H23 lung = system: NCI-H23 lung
OVCAR-3 ovarian = system: OVCAR-3 ovarian
IGROV1 ovarian = system: IGROV1 ovarian
BT-549 breast = system: BT-549 breast
MDA-MB-231 breast = system: MDA-MB-231 breast
K-562 leukemia = system: K-562 leukemia
RXF 393 renal = system: RXF 393 renal
SNB-19 CNS = system: SNB-19 CNS
SF-268 CNS = system: SF-268 CNS
HCT-15 colon = system: HCT-15 colon
NCI/ADR-RES ovarian = system: NCI/ADR-RES ovarian
OVCAR-8 ovarian = system: OVCAR-8 ovarian
SN12C renal = system: SN12C renal
ACHN renal = system: ACHN renal
786-0 renal = system: 786-0 renal
MDA-N = system: MDA-N
T-47D breast = system: T-47D breast
OVCAR-5 ovarian = system: OVCAR-5 ovarian
UO-31 renal = system: UO-31 renal
TK-10 renal = system: TK-10 renal
HCT-116 colon = system: HCT-116 colon
NCI-H460 lung = system: NCI-H460 lung
LOX IMVI melanoma = system: LOX IMVI melanoma
SK-MEL-5 melanoma = system: SK-MEL-5 melanoma
SF-539 CNS = system: SF-539 CNS
M14 melanoma = system: M14 melanoma
MCF7 breast = system: MCF7 breast
COLO 205 colon = system: COLO 205 colon
HT29 colon = system: HT29 colon
KM12 colon = system: KM12 colon
OVCAR-4 ovarian = system: OVCAR-4 ovarian
NCI-H226 lung = system: NCI-H226 lung
MALME-3M melanoma = system: MALME-3M melanoma
CAKI-1 renal = system: CAKI-1 renal
DU-145 prostate = system: DU-145 prostate
A498 renal = system: A498 renal
SF-295 CNS = system: SF-295 CNS
UACC-62 melanoma = system: UACC-62 melanoma
SK-MEL-2 melanoma = system: SK-MEL-2 melanoma
HS 578T breast = system: HS 578T breast
SK-MEL-28 melanoma = system: SK-MEL-28 melanoma
SNB-75 CNS = system: SNB-75 CNS
MOLT-4 leukemia = system: MOLT-4 leukemia
MDA-MB-435 = system: MDA-MB-435
CCRF-CEM leukemia = system: CCRF-CEM leukemia
U251 CNS = system: U251 CNS
SK-OV-3 ovarian = system: SK-OV-3 ovarian
SW-620 colon = system: SW-620 colon
EKVX NSCLC = system: EKVX NSCLC
UACC-257 melanoma = system: UACC-257 melanoma
HL-60(TB) leukemia = system: HL-60(TB) leukemia
PC-3 prostate = system: PC-3 prostate
RPMI-8226 leukemia = system: RPMI-8226 leukemia
NCI-H522 lung = system: NCI-H522 lung
HOP-62 NSCLC = system: HOP-62 NSCLC
SR leukemia = system: SR leukemia
HOP-92 NSCLC = system: HOP-92 NSCLC

Compound: N#CC(c1ccccc1)N(CCOCCOCCN(C(=O)c1cccc2ccccc12)C(C#N)c1ccccc1)C(=O)c1cccc2ccccc12 (stereo not drawn)
- TGI (A549 NSCLC): > 100 µM
- TGI (HCC-2998 colon): > 100 µM
- TGI (NCI-H23 lung): > 100 µM
- TGI (OVCAR-3 ovarian): > 100 µM
- TGI (IGROV1 ovarian): > 100 µM
- TGI (BT-549 breast): > 100 µM
- TGI (MDA-MB-231 breast): > 100 µM
- TGI (K-562 leukemia): > 100 µM
- TGI (RXF 393 renal): > 100 µM
- TGI (SNB-19 CNS): > 100 µM
- TGI (SF-268 CNS): > 100 µM
- TGI (HCT-15 colon): > 100 µM
- TGI (NCI/ADR-RES ovarian): > 100 µM
- TGI (OVCAR-8 ovarian): > 100 µM
- TGI (SN12C renal): > 100 µM
- TGI (ACHN renal): > 100 µM
- TGI (786-0 renal): > 100 µM
- TGI (MDA-N): > 100 µM
- TGI (T-47D breast): > 100 µM
- TGI (OVCAR-5 ovarian): > 100 µM
- TGI (UO-31 renal): > 100 µM
- TGI (TK-10 renal): > 100 µM
- TGI (HCT-116 colon): > 100 µM
- TGI (NCI-H460 lung): > 100 µM
- TGI (LOX IMVI melanoma): > 100 µM
- TGI (SK-MEL-5 melanoma): > 100 µM
- TGI (SF-539 CNS): > 100 µM
- TGI (M14 melanoma): > 100 µM
- TGI (MCF7 breast): > 100 µM
- TGI (COLO 205 colon): > 100 µM
- TGI (HT29 colon): > 100 µM
- TGI (KM12 colon): > 100 µM
- TGI (OVCAR-4 ovarian): > 100 µM
- TGI (NCI-H226 lung): > 100 µM
- TGI (MALME-3M melanoma): > 100 µM
- TGI (CAKI-1 renal): > 100 µM
- TGI (DU-145 prostate): > 100 µM
- TGI (A498 renal): > 100 µM
- TGI (SF-295 CNS): > 100 µM
- TGI (UACC-62 melanoma): > 100 µM
- TGI (SK-MEL-2 melanoma): > 100 µM
- TGI (HS 578T breast): > 100 µM
- TGI (SK-MEL-28 melanoma): > 100 µM
- TGI (SNB-75 CNS): > 100 µM
- TGI (MOLT-4 leukemia): > 100 µM
- TGI (MDA-MB-435): > 100 µM
- TGI (CCRF-CEM leukemia): > 100 µM
- TGI (U251 CNS): > 100 µM
- TGI (SK-OV-3 ovarian): > 100 µM
- TGI (SW-620 colon): > 100 µM
- TGI (EKVX NSCLC): > 100 µM
- TGI (UACC-257 melanoma): > 100 µM
- TGI (HL-60(TB) leukemia): > 100 µM
- TGI (PC-3 prostate): > 100 µM

Compound: O=c1c2cc(S(=O)(=O)Nc3c(Cl)cccc3Cl)ccc2ncn1NS(=O)(=O)c1ccc2ccccc2c1
- TGI (A549 NSCLC): > 62.5 µM
- TGI (HCC-2998 colon): > 62.5 µM
- TGI (NCI-H23 lung): > 62.5 µM
- TGI (RPMI-8226 leukemia): > 62.5 µM
- TGI (OVCAR-3 ovarian): > 62.5 µM
- TGI (NCI-H522 lung): > 62.5 µM
- TGI (IGROV1 ovarian): > 62.5 µM
- TGI (BT-549 breast): > 62.5 µM
- TGI (MDA-MB-231 breast): > 62.5 µM
- TGI (K-562 leukemia): > 62.5 µM
- TGI (HOP-62 NSCLC): > 62.5 µM
- TGI (SNB-19 CNS): > 62.5 µM
- TGI (SF-268 CNS): > 62.5 µM
- TGI (HCT-15 colon): > 62.5 µM
- TGI (NCI/ADR-RES ovarian): > 62.5 µM
- TGI (OVCAR-8 ovarian): > 62.5 µM
- TGI (SN12C renal): > 62.5 µM
- TGI (ACHN renal): > 62.5 µM
- TGI (786-0 renal): > 62.5 µM
- TGI (MDA-N): > 62.5 µM
- TGI (OVCAR-5 ovarian): > 62.5 µM
- TGI (UO-31 renal): > 62.5 µM
- TGI (TK-10 renal): > 62.5 µM
- TGI (HCT-116 colon): > 62.5 µM
- TGI (NCI-H460 lung): > 62.5 µM
- TGI (LOX IMVI melanoma): > 62.5 µM
- TGI (SF-539 CNS): > 62.5 µM
- TGI (M14 melanoma): > 62.5 µM
- TGI (MCF7 breast): > 62.5 µM
- TGI (COLO 205 colon): > 62.5 µM
- TGI (HT29 colon): > 62.5 µM
- TGI (KM12 colon): > 62.5 µM
- TGI (OVCAR-4 ovarian): > 62.5 µM
- TGI (NCI-H226 lung): 35.1 µM
- TGI (MALME-3M melanoma): > 62.5 µM
- TGI (CAKI-1 renal): > 62.5 µM
- TGI (DU-145 prostate): > 62.5 µM
- TGI (SF-295 CNS): > 62.5 µM
- TGI (UACC-62 melanoma): > 62.5 µM
- TGI (SK-MEL-2 melanoma): > 62.5 µM
- TGI (HS 578T breast): > 62.5 µM
- TGI (SK-MEL-28 melanoma): > 62.5 µM
- TGI (SNB-75 CNS): > 62.5 µM
- TGI (MOLT-4 leukemia): > 62.5 µM
- TGI (MDA-MB-435): > 62.5 µM
- TGI (CCRF-CEM leukemia): > 62.5 µM
- TGI (U251 CNS): > 62.5 µM
- TGI (SR leukemia): > 62.5 µM
- TGI (SK-OV-3 ovarian): > 62.5 µM
- TGI (HOP-92 NSCLC): > 62.5 µM
- TGI (SW-620 colon): > 62.5 µM
- TGI (EKVX NSCLC): > 62.5 µM
- TGI (UACC-257 melanoma): > 62.5 µM
- TGI (HL-60(TB) leukemia): > 62.5 µM
- TGI (PC-3 prostate): > 62.5 µM

Compound: CC(C)N1[C@@H]2CCCC[C@H]2N(C(C)C)P1(=O)C(=O)/C=C/c1ccccc1
- TGI (A549 NSCLC): 12.4 µM
- TGI (HCC-2998 colon): 5.33 µM
- TGI (NCI-H23 lung): 6.42 µM
- TGI (RPMI-8226 leukemia): 9.32 µM
- TGI (OVCAR-3 ovarian): 5.74 µM
- TGI (NCI-H522 lung): 3.26 µM
- TGI (IGROV1 ovarian): 4.37 µM
- TGI (BT-549 breast): 14.5 µM
- TGI (MDA-MB-231 breast): 8.74 µM
- TGI (K-562 leukemia): > 100 µM
- TGI (HOP-62 NSCLC): 13.7 µM
- TGI (RXF 393 renal): 3.46 µM
- TGI (SNB-19 CNS): 18.3 µM
- TGI (SF-268 CNS): 7.33 µM
- TGI (HCT-15 colon): 4.14 µM
- TGI (NCI/ADR-RES ovarian): 4.81 µM
- TGI (OVCAR-8 ovarian): 3.46 µM
- TGI (SN12C renal): 3.96 µM
- TGI (ACHN renal): 8.62 µM
- TGI (786-0 renal): 3.36 µM
- TGI (MDA-N): 3.82 µM
- TGI (OVCAR-5 ovarian): 6.66 µM
- TGI (UO-31 renal): 3.13 µM
- TGI (TK-10 renal): 12.9 µM
- TGI (HCT-116 colon): 3.73 µM
- TGI (NCI-H460 lung): 10.3 µM
- TGI (LOX IMVI melanoma): 4.55 µM
- TGI (SK-MEL-5 melanoma): 3.44 µM
- TGI (SF-539 CNS): 6.34 µM
- TGI (M14 melanoma): 5.49 µM
- TGI (MCF7 breast): 59.9 µM
- TGI (COLO 205 colon): 5.05 µM
- TGI (HT29 colon): 8.03 µM
- TGI (KM12 colon): 10.2 µM
- TGI (OVCAR-4 ovarian): 3.39 µM
- TGI (NCI-H226 lung): 24.6 µM
- TGI (MALME-3M melanoma): 2.33 µM
- TGI (CAKI-1 renal): 7.31 µM
- TGI (DU-145 prostate): 4.94 µM
- TGI (A498 renal): 16.9 µM
- TGI (SF-295 CNS): 23.4 µM
- TGI (UACC-62 melanoma): 9.02 µM
- TGI (SK-MEL-2 melanoma): 8.17 µM
- TGI (HS 578T breast): 4.94 µM
- TGI (SK-MEL-28 melanoma): 8.87 µM
- TGI (MOLT-4 leukemia): 16.1 µM
- TGI (MDA-MB-435): 3.74 µM
- TGI (U251 CNS): 16.5 µM
- TGI (SR leukemia): 8.27 µM
- TGI (HOP-92 NSCLC): 6.53 µM
- TGI (EKVX NSCLC): 13.8 µM
- TGI (UACC-257 melanoma): 13.5 µM
- TGI (HL-60(TB) leukemia): 4.84 µM
- TGI (PC-3 prostate): 15.2 µM
